Experimental data reported in patent publication US20090247420A1, “METHOD FOR ENCODING AND SCREENING COMBINATORIAL LIBRARIES” (priority 2005, published 2009).

Experiments:
[1] = molecular target: T1, ImmunoPure avidin (Pierce) outfitted with xanthone ET-sensitizer (Gallus gallus, UniProt P02701); assay: Photolytic tag-release binding screen of the tag-encoded model mini-library with avidin-xanthone conjugate in DPC micelles, GCMS detection of released dithiane tags; details: for dithiane tags encoding the library member detected in the GCMS chromatogram after the photolytic assay: dithiane-aldehyde adduct tags, 0.7 mM each tagged library member, 23 μM protein, 155 mM DPC, incubated 1 hour, irradiated 4 hours, 335 nm long pass filter, hexane extract
T1 construct: purchased Pierce
T1 sequence (P02701 25-152): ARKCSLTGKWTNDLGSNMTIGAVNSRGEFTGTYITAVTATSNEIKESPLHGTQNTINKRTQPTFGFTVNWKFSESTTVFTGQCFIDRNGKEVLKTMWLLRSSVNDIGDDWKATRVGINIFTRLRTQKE
Procedure: The receptor, ImmunoPure® avidin (Pierce), was outfitted with xanthone as an ET-sensitizer. The N-hydroxysuccinimide ester of 11-(xanthone-2-carboxamido)undecanoic acid was coupled to avidin in a 20 mM sodium phosphate buffer according to a described procedure (Wilchek, Methods Enzymol), with subsequent purification on a Sephadex G-25 column. […] Tethering the xanthone-based sensitizer to avidin is no different from outfitting a receptor with a fluorophore for the conventional on-the-bead fluorescence-guided assays.
The screening volume was compartmentalized with micellar detergent, dodecyl phosphocholine (DPC), preventing indiscriminant collisional quenching of avidin-tethered xanthone by unbound molecules and thus limiting the ET sensitization exclusively to the bound host-guest complex. Besides the fact that amphiphiles displaying phosphocholine are common in biological settings, utilization of DPC micelles offers a number of additional benefits: (i) it ensures that the screening is always compatible with aqueous media, regardless of aqueous solubility of the tested libraries; (ii) it allows the design of the tagging system to be centered around readily available hydrophobic alkyl dithianes, which can be selectively extracted after irradiation with hexane or other non-polar solvents for unobstructed GCMS analysis; (iii) it spatially segregates the photofragmentation chemistry from molecular recognition, eliminating potential interference between them; (iv) it restricts the photochemistry to the micelle interior improving quantum efficiency of fragmentation, as it is known to increase in the non-polar environment; and, finally, (v) the micelle-assisted design offers an option of solubilizing certain target proteins, which are not water soluble. While not an issue with avidin, this functionality may be important in assaying insoluble membrane proteins, as recognized in the art.
A typical screening procedure involved solubilization of the mini-library, approximately 0.5 mg per tagged compound, in a 0.6 mL aqueous solution containing 60 mg of DPC. To this clear micellar solution 0.5 mL of avidin-xanthone conjugate was added, so the final concentrations were 0.7 mM of each library member carrying one tag (6.3 mM total), 23 μM protein and 155 mM DPC. The micelle-embedded molecules had apparent translational diffusion coefficients of 7×10^−7 cm^2s^−1, as measured with spin-echo pulse field gradient (PFG) ^1H NMR. […] Then the mixture was extracted with 0.5 mL of hexane, concentrated to 100 μL and analyzed by GCMS.
The generality of this approach is not limited to the tagging assemblies based on dithiane-aldehyde adducts. […] None of the other six dithianes were detected in the hexane extract after irradiation. […]

[2] = Benzophenone-sensitized photofragmentation of triazole 22 and its photostability without sensitizer; assay type: physicochemical
Procedure: To this end 3a was coupled with propargyl amine, providing the acetylenic tagging component S20 for the azide-acetylene click pair. Another readily available tag series was prepared from commercially available acetylenic benzaldehyde as shown in Scheme 12. The Staudinger ligation produces the benzamide linkage, found in compounds 4, 6 and 10, for example. Acetylene-azide click chemistry yields triazoles. […] Triazole 22 was unchanged after prolonged irradiation in the absence of the ET-sensitizer, showing no self-cleavage at wavelengths above 330 nm. This is a critically important finding because premature self-cleavage is detrimental to screening, as it produces false positives.

N[C@H]1C(O)O[C@H](CO)[C@@H](O)[C@@H]1O (stereo partly drawn) [glucosamine]
dithiane tags encoding the library member detected in the GCMS chromatogram after the photolytic assay [1]: not discernible at all

O=C(O)CCCC[C@@H]1SC[C@@H]2NC(=O)N[C@@H]21 [biotin]
dithiane tags encoding the library member detected in the GCMS chromatogram after the photolytic assay [1]: detected | dithianes encoding the library member detected in the GCMS trace of the hexane extract after irradiation ([1]; mini-library tagged with nine thio ortho esters (19), three tags per member, DPC micellar solution, avidin-xanthone conjugate): showed only the dithianes encoding biotin

COC(=O)CCCCCCCCCn1cc(-c2ccc(C(O)C3(C)SCCCS3)cc2)nn1 (stereo not drawn) [compound 22]
stability to irradiation (self-cleavage) ([2]; prolonged irradiation in the absence of the ET-sensitizer, wavelengths above 330 nm): unchanged | quantum efficiency of methyl dithiane release ([2]; upon benzophenone sensitization, compared with the parent (unsubstituted) benzaldehyde adduct): very similar to the parent (unsubstituted) benzaldehyde adduct

NCCCCCCCCCCC(=O)O [aminoundecanoic acid, 11-aminoundecanoic acid]
dithiane tags encoding the library member detected in the GCMS chromatogram after the photolytic assay [1]: not discernible at all
